Assay results taken from ChEMBL document CHEMBL4229518, “New β-lactam - Tetramic acid hybrids show promising antibacterial activities” (Bioorg Med Chem Lett, 2018).
In brackets after ≈: the same amount, converted by molar mass. Activity calls are given as the source filed them. No cut-off for these calls is given here.

What was measured:
Bacillus cereus = test: Antimicrobial activity against Bacillus cereus ATCC 14579 after 18 to 20 hrs by microbroth dilution method; assay type: functional
Staphylococcus aureus [1] = test: Potency index, ratio of cefaclor MIC to compound MIC for methicillin-resistant Staphylococcus aureus NRS70; assay type: functional
Staphylococcus aureus [2] = test: Potency index, ratio of […] MIC to compound MIC for methicillin-resistant Staphylococcus aureus NRS70; assay type: functional
Enterobacter cloacae = test: Antimicrobial activity against Enterobacter cloacae ATCC 13047 after 18 to 20 hrs by microbroth dilution method; assay type: functional; settings: subsp. cloacae ATCC 13047
Proteus mirabilis = test: Antimicrobial activity against Proteus mirabilis ATCC 25933 after 18 to 20 hrs by microbroth dilution method; assay type: functional
Bacillus subtilis = test: Antimicrobial activity against Bacillus subtilis ATCC 23857 after 18 to 20 hrs by microbroth dilution method; assay type: functional
Escherichia coli [3] = test: Antimicrobial activity against Escherichia coli BW25113 after 18 to 20 hrs by microbroth dilution method; assay type: functional
Klebsiella pneumoniae [4] = test: Antimicrobial activity against Klebsiella pneumoniae ATCC 33495 after 18 to 20 hrs by microbroth dilution method; assay type: functional
Staphylococcus aureus [5] = test: Potency index, ratio of cefaclor MIC to compound MIC for […] Staphylococcus aureus ATCC 29213; assay type: functional
Streptococcus pneumoniae = test: Antimicrobial activity against Streptococcus pneumoniae R6 after 18 to 20 hrs by microbroth dilution method; assay type: functional
Escherichia coli [6] = test: Antimicrobial activity against tolC deficient Escherichia coli JW5503-1 after 18 to 20 hrs by microbroth dilution method; assay type: functional
Bacillus anthracis = test: Antimicrobial activity against Bacillus anthracis Sterne 34F2 after 18 to 20 hrs by microbroth dilution method; assay type: functional
Pseudomonas aeruginosa = test: Antimicrobial activity against Pseudomonas aeruginosa PAO1 after 18 to 20 hrs by microbroth dilution method; assay type: functional
Streptococcus pyogenes = test: Antimicrobial activity against Streptococcus pyogenes ATCC 700294 after 18 to 20 hrs by microbroth dilution method; assay type: functional; settings: M1 GAS
[7] = tested on: Stenotrophomonas maltophilia; test: Antimicrobial activity against Stenotrophomonas maltophilia ATCC 700475 after 18 to 20 hrs by microbroth dilution method; assay type: functional
Staphylococcus aureus [8] = test: Potency index, ratio of […] MIC to compound MIC for […] Staphylococcus aureus ATCC 29213; assay type: functional
Staphylococcus aureus [9] = test: Antimicrobial activity against methicillin-susceptible Staphylococcus aureus NRS70 after 18 to 20 hrs by microbroth dilution method; assay type: functional
Staphylococcus aureus [10] = test: Antimicrobial activity against methicillin-susceptible Staphylococcus aureus ATCC 29213 after 18 to 20 hrs by microbroth dilution method; assay type: functional
Enterococcus faecalis = test: Antimicrobial activity against Enterococcus faecalis ATCC 33186 after 18 to 20 hrs by microbroth dilution method; assay type: functional
Acinetobacter baumannii = test: Antimicrobial activity against Acinetobacter baumannii ATCC 19606 after 18 to 20 hrs by microbroth dilution method; assay type: functional; settings: ATCC 19606 = CIP 70.34 = JCM 6841
Klebsiella pneumoniae [11] = test: Antimicrobial activity against Klebsiella pneumoniae isolate SJ 4 after 18 to 20 hrs by microbroth dilution method; assay type: functional
Escherichia coli [12] = test: Antimicrobial activity against Escherichia coli isolate SJ 4 after 18 to 20 hrs by microbroth dilution method; assay type: functional
Escherichia coli [13] = test: Antimicrobial activity against Escherichia coli ATCC 25922 after 18 to 20 hrs by microbroth dilution method; assay type: functional
Escherichia coli [14] = test: Antimicrobial activity against Escherichia coli isolate SJ 5 after 18 to 20 hrs by microbroth dilution method; assay type: functional
Escherichia coli [15] = test: Induction of proton motive force collapse in Escherichia coli BW25113 at 100 uM by flow cytometry; assay type: functional, organism-based
Klebsiella pneumoniae [16] = test: Antimicrobial activity against Klebsiella pneumoniae isolate SJ 2 after 18 to 20 hrs by microbroth dilution method; assay type: functional
Escherichia coli [17] = test: Antimicrobial activity against Escherichia coli isolate SJ 2 after 18 to 20 hrs by microbroth dilution method; assay type: functional
Escherichia coli [18] = test: Antimicrobial activity against Escherichia coli isolate SJ 6 after 18 to 20 hrs by microbroth dilution method; assay type: functional
Escherichia coli [19] = test: Antimicrobial activity against Escherichia coli isolate SJ 3 after 18 to 20 hrs by microbroth dilution method; assay type: functional
Escherichia coli [20] = test: Antimicrobial activity against Escherichia coli isolate SJ 1 after 18 to 20 hrs by microbroth dilution method; assay type: functional
Klebsiella pneumoniae [21] = test: Antimicrobial activity against Klebsiella pneumoniae isolate SJ 5 after 18 to 20 hrs by microbroth dilution method; assay type: functional
Escherichia coli [22] = test: Antimicrobial activity against Escherichia coli ATCC 35218 expressing TEM-1 beta lactamases after 18 to 20 hrs by microbroth dilution method; assay type: functional
Klebsiella pneumoniae [23] = test: Antimicrobial activity against Klebsiella pneumoniae isolate SJ 1 after 18 to 20 hrs by microbroth dilution method; assay type: functional
Klebsiella pneumoniae [24] = test: Antimicrobial activity against Klebsiella pneumoniae isolate SJ 3 after 18 to 20 hrs by microbroth dilution method; assay type: functional

`C=CC1=C(C(=O)O)N2C(=O)[C@@H](NC(=O)CCNC(=O)C3=C(O)C(CC(C)C)NC3=O)[C@H]2SC1` (stereo not given in full) was tested, and the MIC (Bacillus cereus) was over 200 µg/mL, the Ratio (Staphylococcus aureus [1]) was 32 and the Ratio (Staphylococcus aureus [2]) was 64. It also gave an MIC (Enterobacter cloacae) of over 200 µg/mL, an MIC (Proteus mirabilis) of 100 µg/mL (≈ 209 µM) and an MIC (Bacillus subtilis) of 6.25 µg/mL (≈ 13.1 µM). The MIC (Escherichia coli [3]) was over 200 µg/mL, the MIC (Klebsiella pneumoniae [4]) was over 200 µg/mL and the Ratio (Staphylococcus aureus [5]) was 32. The MIC (Streptococcus pneumoniae) was 6.25 µg/mL (≈ 13.1 µM), the MIC (Escherichia coli [6]) was over 200 µg/mL and the MIC (Bacillus anthracis) was 6.25 µg/mL (≈ 13.1 µM). It also gave an MIC (Pseudomonas aeruginosa) of over 200 µg/mL, an MIC (Streptococcus pyogenes) of 12.5 µg/mL (≈ 26.1 µM) and an MIC [7] of over 200 µg/mL. For the same compound, the Ratio (Staphylococcus aureus [8]) was 64, the MIC (Staphylococcus aureus [9]) was 3.13 µg/mL (≈ 6.54 µM) and the MIC (Staphylococcus aureus [10]) was 3.13 µg/mL (≈ 6.54 µM). For the same compound, the MIC (Enterococcus faecalis) was over 200 µg/mL and the MIC (Acinetobacter baumannii) was over 200 µg/mL.
Compound `CO[C@@]1(NC(=O)CCCC(=O)C2=C(O)[C@@H](CC(C)C)NC2=O)C(=O)N2C(C(=O)O)=C(CSc3nnnn3C)CS[C@@H]21` has an MIC (Klebsiella pneumoniae [11]) of over 200 µg/mL, an MIC (Proteus mirabilis) of 12.5 µg/mL (≈ 20.5 µM) and an MIC (Escherichia coli [12]) of over 200 µg/mL. The MIC (Escherichia coli [13]) was over 200 µg/mL, the MIC (Escherichia coli [14]) was 200 µg/mL (≈ 328 µM) and the MIC (Escherichia coli [3]) was 50 µg/mL (≈ 82 µM). The Activity (Escherichia coli [15]) was “inactive”, the MIC (Klebsiella pneumoniae [16]) was 50 µg/mL (≈ 82 µM) and the MIC (Escherichia coli [17]) was 200 µg/mL (≈ 328 µM). For the same compound, the MIC (Klebsiella pneumoniae [4]) was 100 µg/mL (≈ 164 µM), the MIC (Escherichia coli [18]) was over 200 µg/mL and the MIC (Escherichia coli [19]) was 100 µg/mL (≈ 164 µM). For the same compound, the MIC (Escherichia coli [20]) was 100 µg/mL (≈ 164 µM), the MIC (Escherichia coli [6]) was 12.5 µg/mL (≈ 20.5 µM) and the MIC (Pseudomonas aeruginosa) was over 200 µg/mL. For the same compound, the MIC (Klebsiella pneumoniae [21]) was 200 µg/mL (≈ 328 µM), the MIC (Escherichia coli [22]) was 50 µg/mL (≈ 82 µM) and the MIC (Klebsiella pneumoniae [23]) was 12.5 µg/mL (≈ 20.5 µM). It also gave an MIC (Acinetobacter baumannii) of over 200 µg/mL and an MIC (Klebsiella pneumoniae [24]) of 50 µg/mL (≈ 82 µM).
`CO[C@@]1(NC(=O)CCCC(=O)C2=C(O)[C@@H](CCC(=O)O)NC2=O)C(=O)N2C(C(=O)O)=C(CSc3nnnn3C)CS[C@@H]21` gave an MIC (Klebsiella pneumoniae [11]) of 100 µg/mL (≈ 160 µM), an MIC (Proteus mirabilis) of 50 µg/mL (≈ 79.9 µM) and an MIC (Escherichia coli [12]) of over 200 µg/mL. For the same compound, the MIC (Escherichia coli [13]) was 200 µg/mL (≈ 320 µM), the MIC (Escherichia coli [14]) was over 200 µg/mL and the MIC (Escherichia coli [3]) was 200 µg/mL (≈ 320 µM). The Activity (Escherichia coli [15]) was “inactive”, the MIC (Klebsiella pneumoniae [16]) was 25 µg/mL (≈ 40 µM) and the MIC (Escherichia coli [17]) was 200 µg/mL (≈ 320 µM). The MIC (Klebsiella pneumoniae [4]) was 200 µg/mL (≈ 320 µM), the MIC (Escherichia coli [18]) was over 200 µg/mL and the MIC (Escherichia coli [19]) was 200 µg/mL (≈ 320 µM). The MIC (Escherichia coli [20]) was 200 µg/mL (≈ 320 µM), the MIC (Escherichia coli [6]) was 200 µg/mL (≈ 320 µM) and the MIC (Pseudomonas aeruginosa) was over 200 µg/mL. The MIC (Klebsiella pneumoniae [21]) was over 200 µg/mL, the MIC (Escherichia coli [22]) was 50 µg/mL (≈ 79.9 µM) and the MIC (Klebsiella pneumoniae [23]) was 100 µg/mL (≈ 160 µM). For the same compound, the MIC (Acinetobacter baumannii) was over 200 µg/mL and the MIC (Klebsiella pneumoniae [24]) was 200 µg/mL (≈ 320 µM).
